Measurements from US11780826B2 (Amgen Inc., priority 2017, dated 2023).

System: Bovine cardiac myofibrils
Test: In vitro model of dose-dependent myofibril ATPase modulation (AC1.4, pyruvate kinase/lactate dehydrogenase-coupled ATPase assay at pCa25)
Type: biochemical
Details: concentration at which ATPase activity was 1.4-fold higher than the bottom of the dose curve, mean of a minimum of two independent tests
Procedure, shortened: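 We measure calcium-buffered ATPase activity of detergent-skinned bovine cardiac myofibrils at pH 6.80 and 22° C with 1 mM ATP, using a PK/LDH-coupled NADH readout at 340 nm. Values come from four-parameter dose-response fits, averaged over at least two independent runs.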

| SMILES | AC1.4 |
| --- | --- |
| CS(=O)(=O)c1ccc(NC2CCC2)c(C(=O)N2CCC[C@@H]2C(=O)N[C@@H](c2ccc(C(F)(F)F)cc2F)C2CC2)c1 [Example 44, 1-(2-(cyclobutylamino)-5-(methylsulfonyl)benzoyl)-N-((R)-cyclopropyl(2-fluoro-4-(trifluoromethyl)phenyl)methyl)-D-prolinamide] | 0.0434 µM |
| CS(=O)(=O)c1cc(C(=O)N2[C@@H](C(=O)N[C@@H](c3cc(F)c(Cl)cc3F)C3CC3)C[C@@H]3C[C@@H]32)ccn1 [Example 779, (1S,3R,5S)-N-((R)-(4-chloro-2,5-difluorophenyl)(cyclopropyl)methyl)-2-((2-(methylsulfonyl)-4-pyridinyl)carbonyl)-2-azabicyclo[3.1.0]hexane-3-carboxamide] | 8.423 µM |
| CS(=O)(=O)c1ccc(NC2CC2)c(C(=O)N2CCC[C@@H]2C(=O)N[C@@H](c2ccc(C(F)(F)F)cc2F)C2CC2)c1 [Example 26, 1-(2-(cyclopropylamino)-5-(methylsulfonyl)benzoyl)-N-((R)-cyclopropyl(2-fluoro-4-(trifluoromethyl)phenyl)methyl)-D-prolinamide] | 0.0296 µM |
| Cc1cc(F)ccc1CNC(=O)[C@H]1CCCN1C(=O)[C@H]1CCCN(S(=O)(=O)N2CC(C#N)C2)C1 [Example 381, 1-(((3S)-1-((3-cyano-1-azetidinyl)sulfonyl)-3-piperidinyl)carbonyl)-N-(4-fluoro-2-methylbenzyl)-D-prolinamide] | 1.268 µM |
| CS(=O)(=O)c1cncc(C(=O)N2C[C@H]3C[C@H]3[C@@H]2C(=O)N[C@@H](c2cc(F)c(Cl)cc2F)C2CC2)c1 [Example 512, (1R,2R,5S)-N-((R)-(4-chloro-2,5-difluorophenyl)(cyclopropyl)methyl)-3-((5-(methylsulfonyl)-3-pyridinyl)carbonyl)-3-azabicyclo[3.1.0]hexane-2-carboxamide] | 2.252 µM |
| N#CC1CN(S(=O)(=O)c2cccc(C(=O)N3CCC[C@@H]3C(=O)NCc3ccc(Cl)c(Cl)c3)c2)C1 [Example 22, 1-((3-((3-cyano-1-azetidinyl)sulfonyl)phenyl)carbonyl)-N-(3,4-dichlorobenzyl)-D-prolinamide] | 0.02715 µM |
| CC(C)(C)Nc1ccc(S(C)(=O)=O)cc1C(=O)N1[C@@H](C(=O)N[C@@H](c2ccc(C(F)(F)F)cc2F)C2CC2)C[C@H]2C[C@H]21 [Example 101, (1R,3R,5R)-N-((R)-cyclopropyl(2-fluoro-4-(trifluoromethyl)phenyl)methyl)-2-(2-((2-methyl-2-propanyl)amino)-5-(methylsulfonyl)benzoyl)-2-azabicyclo[3.1.0]hexane-3-carboxamide] | 0.1559 µM |
| CCS(=O)(=O)c1cccc(C(=O)N2CCC[C@@H]2C(=O)NCc2ccc(C(F)(F)F)cc2)c1 [Example 793, 1-(3-(ethylsulfonyl)benzoyl)-N-(4-(trifluoromethyl)benzyl)-D-prolinamide] | 9.129 µM |
| C[C@@]1(C(=O)N[C@@H](c2cc(F)c(C(F)(F)F)cc2F)C2CC2)CCN1C(=O)c1cccc(S(C)(=O)=O)c1 [Example 670, (2S)-N-((R)-cyclopropyl(2,5-difluoro-4-(trifluoromethyl)phenyl)methyl)-2-methyl-1-(3-(methylsulfonyl)benzoyl)-2-azetidinecarboxamide] | 4.735 µM |
| CC[C@@H](NC(=O)[C@H]1CCCN1C(=O)c1cccc(S(=O)(=O)N(C)C)c1)c1ccc(Cl)c(F)c1 [Example 259, N-((1R)-1-(4-chloro-3-fluorophenyl)propyl)-1-(3-(dimethylsulfamoyl)benzoyl)-D-prolinamide] | 0.6372 µM |
| N#CC1CN(S(=O)(=O)N2CCC[C@H](C(=O)N3CCC[C@@H]3C(=O)N[C@@H](CO)c3ccc(C(F)(F)F)cc3)C2)C1 [Example 561, 1-(((3S)-1-((3-cyano-1-azetidinyl)sulfonyl)-3-piperidinyl)carbonyl)-N-((1R)-2-hydroxy-1-(4-(trifluoromethyl)phenyl)ethyl)-D-prolinamide] | 2.9935 µM |
| N#CC1CN(S(=O)(=O)N2C[C@H]3C[C@@H]2[C@H](C(=O)N2CCC[C@@H]2C(=O)NCc2ccc(C(F)(F)F)cc2F)C3)C1 [Example 103, 1-(((1R,4R,6R)-2-((3-cyano-1-azetidinyl)sulfonyl)-2-azabicyclo[2.2.1]hept-6-yl)carbonyl)-N-(2-fluoro-4-(trifluoromethyl)benzyl)-D-prolinamide] | 0.1585 µM |
| O=C(NC1CN(S(=O)(=O)N2CCC[C@H](C(=O)N3CCC[C@@H]3C(=O)NCc3ccc(C(F)(F)F)cc3)C2)C1)C1CCC1 [Example 754, 1-(((3S)-1-((3-((cyclobutylcarbonyl)amino)-1-azetidinyl)sulfonyl)-3-piperidinyl)carbonyl)-N-(4-(trifluoromethyl)benzyl)-D-prolinamide] | 7.453 µM |
| CC[C@@H](NC(=O)[C@H]1CCCN1C(=O)[C@H]1CCCN(S(=O)(=O)N2CC(C#N)C2)C1)c1ccc(C(F)(F)F)cc1 [Example 17, 1-(((3S)-1-((3-cyano-1-azetidinyl)sulfonyl)-3-piperidinyl)carbonyl)-N-((1R)-1-(4-(trifluoromethyl)phenyl)propyl)-D-prolinamide] | 0.02445 µM |
| N#CC1CC(S(=O)(=O)c2cccc(C(=O)N3CCCC[C@@H]3C(=O)NCc3ccc(Cl)nc3)c2)C1 (stereo partly drawn) [Example 620, (2R)-N-((6-chloro-3-pyridinyl)methyl)-1-((3-((cis-3-cyanocyclobutyl)sulfonyl)phenyl)carbonyl)-2-piperidinecarboxamide,(2R)-N-((6-chloro-3-pyridinyl)methyl)-1-((3-((trans-3-cyanocyclobutyl)sulfonyl)phenyl)carbonyl)-2-piperidinecarboxamide] | 3.94 µM |
| Cc1cc(C(=O)N2[C@@H](C(=O)N[C@@H](c3cc(F)c(C(F)(F)F)cc3F)C3COC3)C[C@H]3C[C@H]32)c2[nH]ncc2c1 [Example 820, (1R,3R,5R)-N-((R)-(2,5-difluoro-4-(trifluoromethyl)phenyl)(oxetan-3-yl)methyl)-2-(5-methyl-1H-indazole-7-carbonyl)-2-azabicyclo[3.1.0]hexane-3-carboxamide] | 0.9916 µM |
| N#CC1CN(S(=O)(=O)N2CCCC(F)(C(=O)N3CCC[C@@H]3C(=O)NCc3ccc(C(F)(F)F)cc3)C2)C1 (stereo partly drawn) [Example 183, 1-((-1-((3-cyano-1-azetidinyl)sulfonyl)-3-fluoro-3-piperidinyl)carbonyl)-N-(4-(trifluoromethyl)benzyl)-D-prolinamide] | 0.3361 µM |
| CCS(=O)(=O)c1cccc(C(=O)N2[C@@H](C(=O)NCc3cc(F)c(Cl)cc3F)C[C@H]3C[C@H]32)c1 [Example 617, (1R,3R,5R)-N-(4-chloro-2,5-difluorobenzyl)-2-(3-(ethylsulfonyl)benzoyl)-2-azabicyclo[3.1.0]hexane-3-carboxamide] | 3.626 µM |
| CS(=O)(=O)c1cccc(C(=O)N2C[C@H](O)C[C@@H]2C(=O)N[C@@H](c2ccc(C(F)(F)F)cc2F)C2CC2)c1 [Example 506, (4R)-N-((R)-cyclopropyl(2-fluoro-4-(trifluoromethyl)phenyl)methyl)-4-hydroxy-1-(3-(methylsulfonyl)benzoyl)-D-prolinamide] | 2.23 µM |
